Some results are limits rather than exact numbers.

Broadly, the LOAEL is the lowest tested level that showed an adverse finding. The term NOAEL denotes the highest dose or exposure tested at which no adverse effect was seen.

Data set [1] has as its system rat. To be noted: Sub-acute repeat dose toxicity, sprague dawley, Oral, Gavage/Intubation, dose end: 28 day, group: systemic.
Data set [2] deals with rat. To be noted: Combined chronic toxicity/carcinogenicity; sprague dawley; Oral; Feed; dose end: 2 year; group: systemic; systemic / in life observation / body weight / body weight + systemic / in life observation / body weight / body weight gain + systemic / in….
Data set [3] concerns rat. To be noted: Neurotoxicity screening battery, other, Oral, Feed, dose end: 90 day, group: cannot be grouped.
Data set [4] has as its system mouse. To be noted: Subchronic oral toxicity in rodents, b6c3f1, Feed, dose end: 90 day, group: systemic, systemic / organ weight / liver / absolute + systemic / organ weight / liver / relative to body weight + systemic / organ weight / liver / ….
The subject of data set [5] is rat. To be noted: Sub-acute repeat dose toxicity; other; Oral; Feed; dose end: 28 day; group: systemic; systemic / clinical chemistry / glucose / glucose + systemic / in life observation / body weight / body weight + systemic / in life ….
The test system of data set [6] is mouse. To be noted: Sub-acute repeat dose toxicity, b6c3f1, Oral, Feed, dose end: 28 day, group: systemic.
Data set [7] has as its system rat. To be noted: Prenatal developmental toxicity study, sprague dawley, Dermal, Topical, dose end: 15 GD, group: maternal.
Data set [8] concerns mouse. To be noted: Combined chronic toxicity/carcinogenicity, b6c3f1, Oral, Feed, dose end: 18 month, group: systemic.
The subject of another data set is dog. To be noted: Subchronic oral toxicity in nonrodent, beagle, Feed, dose end: 13 week, group: systemic.
The subject of data set [9] is rat. To be noted: Prenatal developmental toxicity study, sprague dawley, Dermal, Topical, dose end: 15 GD.
[10] abbreviates: systemic / clinical chemistry / phosphorus / phosphorus + systemic / clinical chemistry / bilirubin / total bilirubin + systemic / pathology….
The mark [11] stands for this setting: systemic / pathology gross / uterus / fluid contents.
The mark [12] stands for this setting: systemic / in life observation / body weight / body weight + systemic / in life observation / body weight / body weight gain + systemic / in….
Where [13] appears, read: systemic / pathology microscopic / kidney / hypertrophy.
Where [14] appears, read: systemic / pathology microscopic / kidney / hypertrophy + systemic / in life observation / mortality / mortality.
The mark [15] stands for this setting: reproductive / reproductive performance / aborted / aborted + reproductive / reproductive performance / resorptions / resorptions + systemic….
Where [16] appears, read: systemic / in life observation / clinical signs / desquamation + systemic / in life observation / clinical signs / urine, discoloration.
[17] abbreviates: systemic / pathology microscopic / liver / hepatocellular adenoma + systemic / pathology microscopic / liver / hepatocellular carcinoma + ….
The mark [18] stands for this setting: systemic / hematology / platelet / platelet.
The mark [19] stands for this setting: systemic / hematology / platelet / platelet + systemic / in life observation / body weight / body weight gain + systemic / clinical ….
[20] abbreviates: group: developmental, developmental / developmental malformation / bone / absent + developmental / developmental malformation / bone / fused + developmental / ….
The mark [21] stands for this setting: group: maternal, reproductive / reproductive performance / resorptions / resorptions + systemic / in life observation / body weight / body weight gain + ….
Setting [22] is: group: maternal, systemic / in life observation / clinical signs / desquamation.

As for `O=C([O-])CNCO.[Na+]` [Glycine, N-(hydroxymethyl)-, monosodium salt], in the data set on rat [1] (setting [10]), the LOAEL was determined as 640 mg/kg/day and the NOAEL worked out at 160 mg/kg/day. In the data set on rat [1] (setting [11]), this molecule displayed an LEL of 40 mg/kg/day and an NEL below 40 mg/kg/day.
`CN1CCCC1=O` [N-Methyl-2-pyrrolidone]: the LEL in the data set on rat [2] was determined as 678 mg/kg/day; in the data set with rat [3] (setting [12]) it was 433 mg/kg/day; in the data set with mouse [4] it was 619 mg/kg/day; with rat [5] it was 1230 mg/kg/day; in the data set on mouse [6] (setting [13]), 2130 mg/kg/day; in the data set with rat [7] (setting [16]), 500 mg/kg/day. Besides, the LEL in the data set with mouse [8] (systemic / organ weight / liver / absolute + systemic / organ weight / liver / relative to body weight + systemic / pathology microscopic / …) was found to be 173 mg/kg/day; in the data set on dog (setting [18]), 25 mg/kg/day; with rat [9] (setting [20]), 750 mg/kg/day; with rat [9] (setting [22]) it was 75 mg/kg/day. Besides, the LOAEL with rat [2] is above 678 mg/kg/day; in the data set on rat [3] (systemic / in life observation / body weight / body weight + systemic / in life observation / body weight / body weight gain), 433 mg/kg/day; in the data set on mouse [4], 619 mg/kg/day; in the data set with rat [5], 1230 mg/kg/day; in the data set on mouse [6] (setting [13]) it was 2130 mg/kg/day; in the data set on rat [7] (setting [15]) it was above 2500 mg/kg/day. Besides, the LOAEL in the data set with mouse [8] (setting [17]) was above 1090 mg/kg/day; with dog (setting [19]) it was above 250 mg/kg/day; in the data set with rat [9] (setting [20]) it was above 750 mg/kg/day; in the data set on rat [9] (setting [21]) it was above 750 mg/kg/day. The NEL in the data set on rat [2] is 207 mg/kg/day; in the data set with rat [3] (setting [12]), 169 mg/kg/day; in the data set with mouse [4] it was 277 mg/kg/day; in the data set on rat [5], 429 mg/kg/day; in the data set with mouse [6] (setting [14]) it was 720 mg/kg/day; in the data set on rat [7] (setting [16]) it was below 500 mg/kg/day. In addition, the NEL with mouse [8] (setting [17]) was 89 mg/kg/day; in the data set with dog (setting [18]), below 25 mg/kg/day; in the data set on rat [9] (setting [20]), 237 mg/kg/day; in the data set with rat [9] (setting [22]), below 75 mg/kg/day. The NOAEL in the data set with rat [2] was at least 678 mg/kg/day; in the data set on rat [3] (setting [12]), 169 mg/kg/day; in the data set with mouse [4], 277 mg/kg/day; in the data set on rat [5] it was 429 mg/kg/day; with mouse [6] (setting [14]) it was 720 mg/kg/day; with rat [7] (setting [15]) it was at least 2500 mg/kg/day. The NOAEL is at least 1090 mg/kg/day with mouse [8] (setting [17]), at least 250 mg/kg/day in the data set on dog (setting [19]), at least 750 mg/kg/day in the data set with rat [9] (setting [20]) and at least 750 mg/kg/day with rat [9] (setting [21]).

The values above are taken from EPA's ToxRefDB 2.
